The values that follow come from ChEMBL document CHEMBL1148540, “Tetrahydrobenzothiophene inhibitors of hepatitis C virus NS5B polymerase” (Bioorg Med Chem Lett, 2006).

The target of series [1] is T1, RNA-directed RNA polymerase (Hepacivirus hominis, UniProt O39930). In words: Inhibitory activity against HCV 4a NS5B full length RNA dependent RNA polymerase. More on the design: species or system Hepatitis C virus subtype 4a.
The nature of series [2]: Permeability across Caco-2 cell membrane. Type of series: ADME, cell-based. The settings on record: human, read-out: permeability. On the technique in general: Passage across Caco-2 layers is used to estimate intestinal permeability.
Series [3] deals with T1, RNA-directed RNA polymerase. Description: Inhibitory activity against delta-21 C-terminally truncated HCV 1b (BB7 isolate) RNA dependent RNA polymerase. More on the design: species or system Hepatitis C virus subtype 1b.

T1 sequence (O39930 whole entry): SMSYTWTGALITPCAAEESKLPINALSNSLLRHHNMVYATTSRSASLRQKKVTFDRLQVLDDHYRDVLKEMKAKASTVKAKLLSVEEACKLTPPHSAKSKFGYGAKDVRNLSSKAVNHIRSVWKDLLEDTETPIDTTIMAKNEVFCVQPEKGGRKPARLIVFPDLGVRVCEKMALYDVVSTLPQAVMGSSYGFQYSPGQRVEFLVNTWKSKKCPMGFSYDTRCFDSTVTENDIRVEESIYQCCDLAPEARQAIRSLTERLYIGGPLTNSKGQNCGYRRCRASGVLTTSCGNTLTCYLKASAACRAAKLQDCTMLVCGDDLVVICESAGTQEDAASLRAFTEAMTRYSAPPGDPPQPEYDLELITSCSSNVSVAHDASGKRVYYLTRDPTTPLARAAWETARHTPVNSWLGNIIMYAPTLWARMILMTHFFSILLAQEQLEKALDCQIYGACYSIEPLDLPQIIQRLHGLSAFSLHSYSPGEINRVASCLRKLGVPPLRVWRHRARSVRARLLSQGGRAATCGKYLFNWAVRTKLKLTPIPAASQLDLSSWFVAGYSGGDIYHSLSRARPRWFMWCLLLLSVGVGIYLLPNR

Consider `CCOC(=O)c1c(NC(=O)NS(=O)(=O)c2ccccc2)sc2c1CCCC2`, for which the IC50 in series [1] was determined as 700 nM.
Same read-out and setting: next, `CCOC(=O)c1c(NC(=O)NS(=O)(=O)c2ccccc2C)sc2c1CCCC2`: 900 nM.
In series [1], `CCOC(=O)c1c(NC(=O)NS(=O)(=O)c2ccc(C)cc2)sc2c1CCC(C)C2` (centres undefined) registered an IC50 of 200 nM.
As to `CCOC(=O)c1c(NC(=O)NS(=O)(=O)c2nccn2C)sc2c1CCC(C)(C)C2`, the Papp in series [2] was greater than 3 ×10⁻⁶ cm/s. Further, the IC50 is 150 nM in series [3] and 80 nM in series [1].
As for `CCOC(=O)c1c(NC(=O)NS(=O)(=O)N2CCOCC2)sc2c1CCC(C)(C)C2`, the IC50 in series [3] was found to be 2500 nM; in series [1], 300 nM.
`CCOC(=O)c1c(NC(=O)c2nccnc2C(=O)O)sc2c1CCCC2` registered an IC50 in series [1] of 4000 nM.
As for `CCOC(=O)c1c(NC(=O)NS(=O)(=O)c2cccc(C)c2)sc2c1CCCC2`, the IC50 in series [1] stood at 900 nM.
Still for that read-out and setting: in the case of `CCOC(=O)c1c(NC(=O)NS(=O)(=O)c2ccc(F)cc2)sc2c1CCCC2` it was 1700 nM.
Same read-out and setting: in the case of `CCOC(=O)c1c(NC(=O)NS(C)(=O)=O)sc2c1CCCC2` it was 3800 nM.
For `CCOC(=O)c1c(NC(=O)NS(=O)(=O)c2ccc(F)cc2)sc2c1CCC(C)(C)C2`, the Papp in series [2] was greater than 3 ×10⁻⁶ cm/s. The half-inhibitory concentration (IC50) in series [3] is 500 nM; in series [1], 60 nM.
For the compound `CCOC(=O)c1c(NC(=O)NS(=O)(=O)N2CCc3ccccc3C2)sc2c1CCC(C)(C)C2`, the figures for the half-maximal inhibitory concentration (IC50) in series [3] and in series [1] were 600 nM and 100 nM, respectively.
On to `CCOC(=O)c1c(NC(=O)NS(=O)(=O)c2ccc(C)cc2)sc2c1CCCC2`, for which the IC50 in series [1] worked out at 1000 nM.
`CCOC(=O)c1c(NC(=O)NS(=O)(=O)c2ccccc2)sc2c1CCC(C)(C)C2`: the Papp in series [2] was greater than 3 ×10⁻⁶ cm/s. Also, the IC50 stood at 200 nM in series [3] and 90 nM in series [1].
With `CCOC(=O)c1c(NC(=O)NS(=O)(=O)N2CCN(C(C)=O)CC2)sc2c1CCC(C)(C)C2`, the IC50 came out at 600 nM in series [3] and 300 nM in series [1].
For the compound `CCOC(=O)c1c(NC(=O)NS(=O)(=O)c2ccc(C)cn2)sc2c1CCC(C)(C)C2`, the Papp in series [2] is greater than 3 ×10⁻⁶ cm/s. Further, the IC50 in series [3] was 200 nM; in series [1], 50 nM.
On to `CCOC(=O)c1c(NC(=O)NS(=O)(=O)N2CCN(C)CC2)sc2c1CCC(C)(C)C2`, for which the results for the IC50 in series [3] and in series [1] were 2000 nM and 400 nM, respectively.
Take `CCCCS(=O)(=O)NC(=O)Nc1sc2c(c1C(=O)OCC)CCCC2`: in series [1], it took 4900 nM to reach half-maximal inhibition (IC50).
On to `CCOC(=O)c1c(NC(=O)NS(=O)(=O)c2ccc(C)cc2)sc2c1CCC(C)(C)C2`, for which, in series [2], the Papp is greater than 3 ×10⁻⁶ cm/s. Moreover, the figures for the 50% inhibitory concentration (IC50) in series [3] and in series [1] were 400 nM and 90 nM, respectively.
The matching figures for `CCOC(=O)c1c(NC(=O)NS(=O)(=O)c2ccnn2C)sc2c1CCC(C)(C)C2`: greater than 3 ×10⁻⁶ cm/s, 260 nM and 50 nM.
Compound `CCOC(=O)c1c(NC(=O)NS(=O)(=O)c2cccc(OC)c2)sc2c1CCCC2` displayed an IC50 in series [1] of 1200 nM.
For `CCOC(=O)c1c(NC(=O)NS(=O)(=O)N2CCc3ccccc32)sc2c1CCC(C)(C)C2`, the IC50 in series [3] was 260 nM; in series [1] it was 200 nM.
With `CCOC(=O)c1c(NC(=O)NS(=O)(=O)c2ccccc2C(F)(F)F)sc2c1CCC(C)(C)C2`, in series [2], the Papp is greater than 3 ×10⁻⁶ cm/s. For the same compound, the IC50 was determined as 200 nM in series [3] and 50 nM in series [1].
As to `CCOC(=O)c1c(NC(=O)NS(=O)(=O)N2CCCCCC2)sc2c1CCC(C)(C)C2`, the results for the half-maximal inhibitory concentration (IC50) in series [3] and in series [1] were 1100 nM and 500 nM, respectively.
`CCOC(=O)c1c(NC(=O)NS(=O)(=O)c2ccccc2OC(F)(F)F)sc2c1CCC(C)(C)C2`: the Papp in series [2] is greater than 3 ×10⁻⁶ cm/s. Further, the IC50 in series [3] is 400 nM; in series [1], 150 nM.
The matching figures for `CCOC(=O)c1c(NC(=O)NS(=O)(=O)c2ccc(C#N)cc2)sc2c1CCC(C)(C)C2`: greater than 3 ×10⁻⁶ cm/s, 400 nM and 90 nM.
Consider `CCOC(=O)c1c(NC(=O)NS(=O)(=O)c2ccc(C)cc2)sc2c1C(C)CCC2` (centres undefined), for which, in series [1], the IC50 is 2000 nM.
Same read-out and setting: in the case of `CCOC(=O)c1c(NC(=O)NS(=O)(=O)c2cccc3ccccc23)sc2c1CCCC2` it was 700 nM; in that of `CCOC(=O)c1c(NC(=O)NS(=O)(=O)c2ccc([N+](=O)[O-])cc2)sc2c1CCCC2`, 2800 nM.
Turning to `CCOC(=O)c1c(NC(=O)NS(=O)(=O)N2CCCC2)sc2c1CCC(C)(C)C2`, the IC50 came to 400 nM in series [3] and 200 nM in series [1].
In turn, `CCOC(=O)c1c(NC(=O)NS(=O)(=O)c2ccc(C)cc2)sc2c1CC(C)CC2` (centres undefined) had a half-inhibitory concentration (IC50) in series [1] of 500 nM.
Turning to `CCOC(=O)c1c(NC(=O)NS(=O)(=O)c2ncccn2)sc2c1CCC(C)(C)C2`, the Papp in series [2] was greater than 3 ×10⁻⁶ cm/s. For the same compound, the half-maximal inhibitory concentration (IC50) in series [3] was 300 nM; in series [1], 50 nM.
On the same counts, the results for `CCOC(=O)c1c(NC(=O)NS(=O)(=O)c2ccccn2)sc2c1CCC(C)(C)C2` are greater than 3 ×10⁻⁶ cm/s, 150 nM and 40 nM.
Regarding `CCOC(=O)c1c(NC(=O)NS(=O)(=O)N2CCCCC2)sc2c1CCC(C)(C)C2`, the IC50 in series [3] amounted to 1000 nM; in series [1], 200 nM.
Consider `CCOC(=O)c1c(NC(=O)NS(=O)(=O)c2ccc(Cl)cc2)sc2c1CCCC2`, for which 1000 nM corresponded to half-maximal inhibition in series [1] (IC50).

The term IC50 denotes the midpoint of a concentration-inhibition curve. The low end stands for greater potency in that assay, the high end for weaker potency in that assay.
